ChEMBL document CHEMBL1139688, “3,4,5-Trisubstituted isoxazoles as novel PPARdelta agonists. Part 2” (Bioorg Med Chem Lett, 2006)
pEC50: −log10 of the molar value. Calls of active or inactive are those of the source. No cut-off for these calls is given here.

Tests used:
[1] = Stability in mouse liver microsomes; assay type: ADME, Microsome
[2] = biological target: T1, Peroxisome proliferator-activated receptor alpha (Homo sapiens, UniProt Q07869); assay: Activity at human PPAR alpha by cell-based transactivation assay
T1 sequence (Q07869 whole entry): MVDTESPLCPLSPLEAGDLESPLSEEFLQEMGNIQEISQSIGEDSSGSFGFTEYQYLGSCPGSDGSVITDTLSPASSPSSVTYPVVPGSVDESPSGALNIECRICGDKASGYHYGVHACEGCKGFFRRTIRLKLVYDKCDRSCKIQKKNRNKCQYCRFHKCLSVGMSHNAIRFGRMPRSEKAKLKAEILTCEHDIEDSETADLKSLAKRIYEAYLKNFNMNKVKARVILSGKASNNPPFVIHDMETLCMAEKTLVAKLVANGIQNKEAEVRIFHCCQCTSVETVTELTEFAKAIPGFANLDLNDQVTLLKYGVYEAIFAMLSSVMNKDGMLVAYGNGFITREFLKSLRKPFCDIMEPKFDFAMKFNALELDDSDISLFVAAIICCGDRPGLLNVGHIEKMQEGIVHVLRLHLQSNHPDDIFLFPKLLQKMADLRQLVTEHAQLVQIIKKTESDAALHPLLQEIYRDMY

[3] = biological target: T2, Peroxisome proliferator-activated receptor delta (Homo sapiens, UniProt Q03181); assay: Activity at human PPAR delta by cell-based transactivation assay
T2 sequence (Q03181 whole entry): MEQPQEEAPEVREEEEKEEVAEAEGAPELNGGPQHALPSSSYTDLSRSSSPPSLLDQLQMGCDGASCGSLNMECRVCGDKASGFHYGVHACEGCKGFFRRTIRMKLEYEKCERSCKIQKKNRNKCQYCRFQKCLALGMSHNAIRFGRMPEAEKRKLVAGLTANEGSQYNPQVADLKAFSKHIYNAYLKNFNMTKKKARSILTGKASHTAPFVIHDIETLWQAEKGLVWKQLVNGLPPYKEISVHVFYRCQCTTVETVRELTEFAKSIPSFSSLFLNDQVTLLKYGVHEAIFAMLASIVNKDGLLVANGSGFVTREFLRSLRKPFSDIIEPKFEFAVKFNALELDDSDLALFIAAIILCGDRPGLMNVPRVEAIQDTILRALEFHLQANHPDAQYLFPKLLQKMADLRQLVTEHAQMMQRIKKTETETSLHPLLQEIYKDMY

Liver microsomes [4] = assay: Stability in rat liver microsomes; assay type: ADME, Microsome
Liver microsomes [5] = assay: Stability in human liver microsomes; assay type: ADME, Microsome
[6] = biological target: T3, Peroxisome proliferator-activated receptor gamma (Homo sapiens, UniProt P37231); assay: Activity at human PPAR gamma by cell-based transactivation assay
T3 sequence (P37231 whole entry): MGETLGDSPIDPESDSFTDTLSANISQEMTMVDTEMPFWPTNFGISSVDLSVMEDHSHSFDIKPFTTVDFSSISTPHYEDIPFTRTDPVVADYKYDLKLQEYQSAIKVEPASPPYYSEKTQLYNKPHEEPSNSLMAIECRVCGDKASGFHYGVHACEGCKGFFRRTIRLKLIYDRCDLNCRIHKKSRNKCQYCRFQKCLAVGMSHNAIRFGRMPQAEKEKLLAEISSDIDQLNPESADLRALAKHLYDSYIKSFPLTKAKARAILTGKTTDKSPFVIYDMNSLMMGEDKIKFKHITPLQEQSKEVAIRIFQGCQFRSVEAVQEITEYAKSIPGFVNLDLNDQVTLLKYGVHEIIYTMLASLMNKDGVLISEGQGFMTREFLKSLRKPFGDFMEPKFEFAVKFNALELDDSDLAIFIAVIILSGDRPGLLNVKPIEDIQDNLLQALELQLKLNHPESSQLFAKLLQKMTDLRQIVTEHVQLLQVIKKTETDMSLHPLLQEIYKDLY

[7] = Half life in C57BL/6 mouse at 20 mg/kg, po; assay type: ADME, organism-based; design: dose 20 mg/kg, route oral; conditions: in vivo
[8] = Cmax in C57BL/6 mouse at 20 mg/kg, po; assay type: ADME, organism-based; design: dose 20 mg/kg, route oral; conditions: in vivo
Mus musculus [9] = assay: Regulation of UCP3 gene expression in C57BL/6 mouse skeletal muscle at 10 mg/kg, po; assay type: functional, organism-based; design: dose 10 mg/kg; conditions: Muscle tissue
Mus musculus [10] = assay: Regulation of ApoAIV gene expression in C57BL/6 mouse jejunum at 10 mg/kg, po; assay type: functional, organism-based; design: dose 10 mg/kg
Mus musculus [11] = assay: Regulation of PDK4 gene expression in C57BL/6 mouse skeletal muscle at 10 mg/kg, po; assay type: functional, organism-based; design: dose 10 mg/kg; conditions: Muscle tissue

## CC(C)c1onc(-c2cccc(CC(=O)O)c2)c1C(=O)NCCOc1ccc(Cl)cc1Cl
[1]
  Stability: Stable
[2]
  pEC50: < 5.00
[3]
  pEC50: 5.97
Liver microsomes [4]
  Stability: Stable
Liver microsomes [5]
  Stability: Stable
[6]
  pEC50: < 5.00

## COc1ccc(CC(=O)O)cc1-c1noc(-c2ccccc2)c1C(=O)NCCOc1ccc(Cl)cc1Cl
[1]
  Stability: Stable
[2]
  pEC50: < 5.00
[3]
  pEC50: 6.25
Liver microsomes [4]
  Stability: Stable
Liver microsomes [5]
  Stability: Stable
[6]
  pEC50: < 5.00

## O=C(O)Cc1cccc(-c2noc(-c3ccco3)c2C(=O)NCCOc2ccc(Cl)cc2Cl)c1
[7]
  half-life: < 0.5 h
[1]
  Stability: Stable
[2]
  pEC50: < 5.00
[3]
  pEC50: 7.05
Liver microsomes [4]
  Stability: Stable
[8]
  Cmax: < 0.3 µM
Liver microsomes [5]
  Stability: Stable
[6]
  pEC50: < 5.00

## O=C(O)c1ccc(-c2noc(-c3ccccc3)c2C(=O)NCCOc2ccc(Cl)cc2Cl)cc1
[1]
  Stability: Stable
[2]
  pEC50: < 5.00
[3]
  pEC50: < 5.00
Liver microsomes [4]
  Stability: Stable
Liver microsomes [5]
  Stability: Stable
[6]
  pEC50: < 5.00

## O=C(O)Cc1cccc(-c2noc(-c3ccccc3Cl)c2C(=O)NCCOc2ccc(Cl)cc2Cl)c1
[7]
  half-life: 1.1 h
[1]
  Stability: Stable
[2]
  pEC50: < 5.00
[3]
  pEC50: 7.22
Liver microsomes [4]
  Stability: Stable
[8]
  Cmax: 5.6 µM
Liver microsomes [5]
  Stability: Stable
[6]
  pEC50: < 5.00

## O=C(O)Cc1ccc(OCc2noc(-c3ccccc3)c2C(=O)NCCOc2ccc(Cl)cc2Cl)c(Cl)c1
[1]
  Stability: Stable
[2]
  pEC50: < 5.00
[3]
  pEC50: < 5.00
Liver microsomes [4]
  Stability: Stable
Liver microsomes [5]
  Stability: Stable
[6]
  pEC50: < 5.00

## O=C(O)CCc1cccc(-c2noc(-c3ccccc3)c2C(=O)NCCOc2ccc(Cl)cc2Cl)c1
[1]
  Stability: Stable
[2]
  pEC50: < 5.00
[3]
  pEC50: 6.01
Liver microsomes [4]
  Stability: Stable
Liver microsomes [5]
  Stability: Stable
[6]
  pEC50: < 5.00

## O=C(O)Cc1ccc(-c2noc(-c3ccccc3)c2C(=O)NCCOc2ccc(Cl)cc2Cl)c(Cl)c1
[7]
  half-life: < 0.5 h
[1]
  Stability: Stable
[2]
  pEC50: < 5.00
Liver microsomes [4]
  Stability: Stable
[8]
  Cmax: < 0.3 µM
Liver microsomes [5]
  Stability: Stable
[6]
  pEC50: < 5.00

## Cc1cc(-c2noc(-c3ccccc3)c2C(=O)NCCOc2ccc(Cl)cc2Cl)ccc1OCC(=O)O
[7]
  half-life: < 0.5 h
[1]
  Stability: Stable
[2]
  pEC50: < 5.00
[3]
  pEC50: 6.70
Liver microsomes [4]
  Stability: Stable
[8]
  Cmax: < 0.3 µM
Liver microsomes [5]
  Stability: Stable
[6]
  pEC50: < 5.00

## O=C(O)Cc1cccc(-c2noc(-c3ccccc3)c2C(=O)NCCOc2ccc(Cl)cc2Cl)c1
[7]
  half-life: 3.1 h
Mus musculus [9]
  Activity: Active
[1]
  Stability: Stable
[2]
  pEC50: < 5.00
Mus musculus [10]
  Activity: Active
[3]
  pEC50: 7.15
Liver microsomes [4]
  Stability: Stable
Mus musculus [11]
  Activity: Active
[8]
  Cmax: 5.1 µM
Liver microsomes [5]
  Stability: Stable
[6]
  pEC50: < 5.00

## Cc1ccccc1-c1onc(-c2cccc(CC(=O)O)c2)c1C(=O)NCCOc1ccc(Cl)cc1Cl
[7]
  half-life: 1.5 h
[1]
  Stability: Stable
[2]
  pEC50: < 5.00
[3]
  pEC50: 7.30
Liver microsomes [4]
  Stability: Stable
[8]
  Cmax: 1.9 µM
Liver microsomes [5]
  Stability: Stable
[6]
  pEC50: < 5.00

## O=C(O)Cc1ccc(-c2noc(-c3ccccc3)c2C(=O)NCCOc2ccc(Cl)cc2Cl)cc1
[1]
  Stability: Stable
[2]
  pEC50: < 5.00
[3]
  pEC50: 6.14
Liver microsomes [4]
  Stability: Stable
Liver microsomes [5]
  Stability: Stable
[6]
  pEC50: < 5.00
